Where two headings read alike, the source gives them in different places.
How the values were obtained:
[1] = test system: TC71 (human ESFT cell line); assay: IC50 activity in TC71 cells; assay type: cell-based
Method: (§1) Compounds provided in Table 2 were prepared using methods similar to those described herein. The structures and IC50 activities of particular compounds in PANC1 (a human pancreatic carcinoma), TC32 (human ESFT cell line), and TC71 (human ESFT cell line) cells are summarized in Table 2.
(§2) Growth inhibition of ESFT cells was measured for various concentrations of particular compounds.

GBM cell lines = assay: Growth of GBM cell lines; assay type: cell-based; details: range over GBM cell lines
Description: Seven cell lines were selected with a spectrum of genetic abnormalities that occur in GBM. […] A panel of GBM cell lines were acquired that represent the heterogeneity of the disease.

EWS-FLI1/RHA interaction = target: T1, EWS-FLI1/RHA interaction (Homo sapiens, UniProt Q01543+Q01844); assay: Immunoblot/co-precipitation of RHA and EWS-FLI1 from treated TC32 cells; assay type: cell-based; details: TC32 cell lysates
T1 construct: endogenous in cells; host or cells: TC32
T1 sequence (Q01844+Q01543 with tags, fused parts or gaps): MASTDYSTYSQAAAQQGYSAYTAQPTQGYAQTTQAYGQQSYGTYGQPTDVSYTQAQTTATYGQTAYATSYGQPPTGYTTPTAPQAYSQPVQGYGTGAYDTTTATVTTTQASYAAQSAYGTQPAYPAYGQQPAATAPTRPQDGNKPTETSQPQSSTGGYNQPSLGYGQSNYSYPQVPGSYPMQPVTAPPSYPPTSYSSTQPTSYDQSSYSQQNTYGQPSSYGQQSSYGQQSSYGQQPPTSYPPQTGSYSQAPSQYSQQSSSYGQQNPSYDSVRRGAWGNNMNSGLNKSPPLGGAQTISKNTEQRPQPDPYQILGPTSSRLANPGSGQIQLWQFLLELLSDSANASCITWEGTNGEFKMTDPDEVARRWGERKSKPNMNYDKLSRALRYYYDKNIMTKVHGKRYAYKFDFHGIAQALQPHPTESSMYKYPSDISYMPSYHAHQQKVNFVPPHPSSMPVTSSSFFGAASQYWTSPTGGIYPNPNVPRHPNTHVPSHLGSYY

[2] = test system: TC32 (human ESFT cell line); assay: IC50 activity in TC32 cells; assay type: cell-based
Method: as §1

BSA = BSA (Bos taurus, UniProt P02769); assay: Surface plasmon resonance binding to non-specific protein BSA; details: SPR, read-out: affinity for BSA
Chain of BSA (P02769 25-607): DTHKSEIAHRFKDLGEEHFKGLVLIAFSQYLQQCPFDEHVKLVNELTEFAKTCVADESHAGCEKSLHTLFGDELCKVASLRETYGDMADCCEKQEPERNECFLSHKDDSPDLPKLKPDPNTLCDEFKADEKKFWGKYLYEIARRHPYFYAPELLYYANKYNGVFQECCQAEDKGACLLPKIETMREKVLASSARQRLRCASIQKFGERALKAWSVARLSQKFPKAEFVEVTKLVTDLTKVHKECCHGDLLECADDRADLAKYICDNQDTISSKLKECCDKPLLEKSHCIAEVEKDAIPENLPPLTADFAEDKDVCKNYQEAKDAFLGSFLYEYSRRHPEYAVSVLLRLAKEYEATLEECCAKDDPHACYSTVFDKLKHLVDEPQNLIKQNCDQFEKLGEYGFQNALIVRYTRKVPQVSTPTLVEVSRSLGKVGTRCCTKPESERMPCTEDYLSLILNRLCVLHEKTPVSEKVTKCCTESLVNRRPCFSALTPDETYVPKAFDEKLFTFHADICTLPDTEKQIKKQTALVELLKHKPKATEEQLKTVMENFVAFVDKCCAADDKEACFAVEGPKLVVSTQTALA
Method: Steady state kinetics were measured on a Biacore T100 instrument, as previously described (Erkizan H V, Kong Y, Merchant M, Schlottmann S, Barber-Rotenberg J S, Yuan L, et al. A small molecule blocking oncogenic protein EWS-FLI1 interaction with RNA helicase A inhibits growth of Ewing's sarcoma. Nat Med. 2009 July; 15(7):750-6. PubMed PMID: 19584866. Eng; Barber-Rotenberg J S, Selvanath), SPR sensograms are not shown.

Ewing Sarcoma xenograft = Ewing Sarcoma xenograft models; cited from earlier work
ES xenografts = assay: ES xenograft tumor regression in mice; assay type: in vivo; details: 400 mg/kg intraperitoneal, three days, 6 total doses, tumors 300 mm^3
Method: FIG. 13A: Mice with ES xenografts were treated with 400 mg/kg compound or controls as indicated. Starting well-established tumors (300 mm^3), mice were treated with intraperitoneal compound for three days, 6 total doses. FIG. 13B: H and E stained tumors from same experiment.
YK-4-279 upon xenograft GBM tumors is evaluated by treating animals seven days after tumor injection and those with symptomatic tumors. Early tumors are screened with Xenogen, and size correlated with MRI, and treatment started when animals 5 mm^3 lesions. YK-4-279 passes the blood-brain barrier. […] The study will measure brain tumor volumes, animal symptoms, and overall survival. At necropsy, tumors and normal adjacent brain will be evaluated by immunohistochemistry for GBM markers, apoptosis, and FLI1 regulated target genes. […] FIG. 13A: Mice with ES xenografts were treated with 400 mg/kg compound or controls as indicated. Starting well-established tumors (300 mm^3), mice were treated with intraperitoneal compound for three days, 6 total doses. FIG. 13B: H and E stained tumors from same experiment.

[3] = Rat pharmacokinetics, IV injection, observation; assay type: in vivo; details: rats, rapid injection; did not occur with slower infusion
Description: One of the significant challenges in getting novel targeted therapy into GBM is overcoming the blood-brain barrier (BBB).

ESFT cells = assay: Growth inhibition of ESFT cells; assay type: cell-based; details: ESFT cells growing in monolayer
Method: as §2

EWS-FLI1 [4] = target: T2, EWS-FLI1 (Homo sapiens, UniProt Q01543); details: read-out: affinity (KD) for EWS-FLI1; cited from earlier work
T2 sequence (Q01543 220-452 limits assumed): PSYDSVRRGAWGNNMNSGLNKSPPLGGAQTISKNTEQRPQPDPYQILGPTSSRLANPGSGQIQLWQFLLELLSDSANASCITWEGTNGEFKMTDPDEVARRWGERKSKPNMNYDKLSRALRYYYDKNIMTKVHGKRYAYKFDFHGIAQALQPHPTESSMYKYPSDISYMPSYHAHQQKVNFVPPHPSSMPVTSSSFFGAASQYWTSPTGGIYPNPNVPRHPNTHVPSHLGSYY

[5] = test system: PANC1 (a human pancreatic carcinoma); assay: IC50 activity in PANC1 cells; assay type: cell-based
Method: as §1

EWS-FLI1 [6] = target: T3, EWS-FLI1 (Homo sapiens, UniProt Q01543+Q01844); details: enantiomer specificity; cited from earlier work
T3 sequence (Q01543 220-452 limits assumed): T2 sequence (Q01543 220-452 limits assumed)

Compound `COc1ccc(C(=O)CC2(O)C(=O)Nc3c(Cl)ccc(Cl)c32)cc1` (racemic) [YK-4-279] has an IC50 ([1]; Homo sapiens, TC-71, TC71 cells) of 918 nM, an IC50 ([1]; TC71 cells) of 1430 nM and an IC50 (GBM cell lines) of 500 to 9900 nM. For the same compound, the “interaction of RHA with EWS-FLI1” value (EWS-FLI1/RHA interaction; co-precipitation) was “did disrupt their interactions”, the “level of EWS-FLI1 or RHA” value (EWS-FLI1/RHA interaction; immunoblot) was “did not directly affect the level of EWS-FLI1 or RHA” and the IC50 ([2]; Homo sapiens, TC-32, TC32 cells) was 940 nM. For the same compound, the IC50 ([2]; TC32 cells) was 766 nM, the Kd (BSA) was 122000 nM and the tumor growth (Ewing Sarcoma xenograft) was “reduced tumor growth”. For the same compound, the tumor response (ES xenografts) was “significant tumor regression”, the “observation after IV injection” value [3] was “rats became somnolent after rapid injection” and the IC50 (ESFT cells) was 900 nM. For the same compound, the Kd (EWS-FLI1 [4]) was 9500 nM, the IC50 ([5]; Homo sapiens, PANC-1, PANC1 cells) was 20000 nM and the IC50 ([5]; PANC1 cells, read-out: IC50 PANC 1) was 34000 nM.

In the case of `COc1ccc(C(=O)C[C@@]2(O)C(=O)Nc3c(Cl)ccc(Cl)c32)cc1` [(S)-YK-4-279], the tumor response (ES xenografts) is given as “significant tumor regression” and the “inhibition of functional activities of EWS-FLI1” value (EWS-FLI1 [6]) is given as “able to inhibit the functional activities of EWS-FLI1”.

— US9511050B2, “Methods and compositions for treating cancer” (GEORGETOWN UNIVERSITY, priority 2013, dated 2016)
